Results taken from patent US12435128B2, “Method for predicting therapeutic effect of LSD1 inhibitor based on expression of INSM1” (TAIHO PHARMACEUTICAL CO., LTD., priority 2017, dated 2025).

Assays:
[1] = tested on: NCI-H146 cells (human small-cell lung cancer cell lines); experiment: Antitumor effect test using NCI-H146 cells subcutaneously implanted into mice (T/C %); assay type: in vivo; conditions: NCI-H146 in BALB/cAJcl-nu/nu mice
Procedure: To 5 mice in each group, a vehicle (0.5% hydroxymethylpropylcellulose containing 0.1 N HCL) or each Example compound was orally administered. […] The major axis and the minor axis of each tumor were measured twice a week with an electric caliper to calculate the tumor volume (TV). According to the tumor volumes thus obtained, a relative tumor volume (RTV) and a relative tumor volume change (T/C (%)) were calculated. The TV, RTV, and T/C (%) were calculated using the following equations. Tumor volume TV(mm^3)=(major axis, mm)×(minor axis, mm)×(minor axis, mm)/2 Relative tumor volume RTV=TV/(TV on the grouping day) T/C(%)=(average RTV of administration group)/(average RTV of vehicle administration group)×100.
The final measurement day was the day following the final administration day.

[2] = tested on: NCI-H1417 cells; experiment: Cell-growth inhibitory effects of LSD1 inhibitor on sensitive strain NCI-H1417; assay type: cell-based, human; conditions: 10 days
Procedure: (§1) As a medium, 10% FBS-containing RPMI1640 was used. Cell lines were seeded in a 96-well flat-bottom microplate in an amount of 120 μL, and a well containing 160 μL of medium alone was also prepared for background measurement. […] After culture, the microplate was allowed to stand at room temperature for 30 minutes. To 160 μL of the cell culture solution or the medium containing no cells, 140 μL of CellTiter-Glo 2.0 Assay (Promega) was added. After the microplate was allowed to stand at room temperature for 10 minutes, the luminescence intensity of viable cells in each well was measured using a microplate reader (PerkinElmer, EnSpire). The IC35 of each drug was obtained in the same manner as above.

[3] = tested on: DMS79 cells; experiment: Cell-growth inhibitory effects of LSD1 inhibitor on non-sensitive strain DMS79; assay type: cell-based, human; conditions: 10 days
Procedure: as §1

[4] = tested on: HEL cells (human acute myelocytic leukemia cell lines); experiment: Cell-growth inhibition test: HEL cells; assay type: cell-based; conditions: read-out: IC50 (nM), Cell-Growth Inhibition Test: HEL Cells
[5] = tested on: NCI-H1417 cells (human small-cell lung cancer cell lines); experiment: Cell-growth inhibition test: NCI-H1417 cells; assay type: cell-based; conditions: read-out: IC50 (nM), Cell-Growth Inhibition Test: NCI-H1417 Cells
[6] = tested on: NCI-H146 cells (human small-cell lung cancer cell lines); experiment: Cell-growth inhibition test: NCI-H146 cells; assay type: cell-based; conditions: NCI-H146 cells; read-out: IC50 (nM), Cell-Growth Inhibition Test: NCI-H146 Cells
Procedure: Under the following conditions, an in vitro cell-growth inhibition test was performed with respect to HEL cells (human acute myelocytic leukemia cell lines), NCI-H1417 cells (human small-cell lung cancer cell lines), and NCI-H146 cells (human small-cell lung cancer cell lines).
The cells with the Example compound or with dimethylsulfoxide alone were cultured at 37° C. in a 5% carbon-dioxide-containing incubator for 5 days (HEL cells) or 10 days (NCI-H1417 cells and NCI-H146 cells). After culture, the plate was allowed to stand at room temperature for 30 minutes, and 100 μL of the supernatant was removed from each well to leave 100 μL of the cell culture solution. To each well containing the remaining 100 μL of the cell culture solution, the same amount of CellTiter-Glo 2.0 Assay (Promega, Cat #: G9242) was added. The microplate was shaken with a plate mixer for 1 minute and then allowed to stand in a dark place for 10 minutes. Thereafter, the luminescence intensity of viable cells in each well was measured using a microplate reader (PerkinElmer, EnSpire). […] Cell growth rate(%)=T/C×100 • T: The luminescence intensity in a well to which the test compound was added (count per second) • C: The luminescence intensity in a well to which dimethylsulfoxide alone was added (count per second)

**Q.** How did the “T/C (%)” value ([1]; 25 mg/kg orally once a day, 21 consecutive days) turn out when `CC(C)(O)Cc1ccc(-c2ccc(C(=O)N3[C@@H]4CC[C@H]3C[C@@H](N)C4)cc2-c2ccc(C#N)c(F)c2)c(F)c1` [Example 41, 4-[5-[(3-endo)-3-amino-8-azabicyclo[3.2.1]octane-8-carbonyl]-2-[2-fluoro-4-(2-hydroxy-2-methyl-propyl)phenyl]phenyl]-2-fluoro-benzonitrile] was run?
**A.** The value was 19%.

**Q.** And the growth inhibitory effects [2]?
**A.** The growth inhibitory effects was “showed growth inhibitory effects”.

**Q.** And the growth inhibitory effects [3]?
**A.** Its growth inhibitory effects is “did not show growth inhibitory effects”.

**Q.** Which results are given for `CC(C)(O)Cn1nnc2cc(-c3ccc(C(=O)N4[C@@H]5CC[C@H]4C[C@@H](N)C5)cc3-c3ccc(C#N)c(F)c3)c(F)c(F)c21` [Example 161, 5′-((3-endo)-3-amino-8-azabicyclo[3.2.1]octane-8-carbonyl)-2′-(6,7-difluoro-1-(2-hydroxy-2-methylpropyl)-1H-benzo[d][1,2,3]triazol-5-yl)-3-fluoro-[1,1′-biphenyl]-4-carbonitrile]?
**A.** T/C (%) ([1]; 40 mg/kg orally once a day, 28 consecutive days): 14%; IC50 [4]: 5.68 nM

**Q.** Which results are given for `CCC(O)(CC)Cn1nnc2cc(-c3ccc(C(=O)N4[C@@H]5CC[C@H]4[C@@H](N)C5)cc3-c3ccc(C#N)c(F)c3)c(F)c(F)c21` (single isomer, unassigned) [Example 214]?
**A.** IC50 [5]: 0.47 nM; IC50 [6]: 2.58 nM; IC50 [4]: 0.44 nM; growth inhibitory effects [2]: showed growth inhibitory effects; growth inhibitory effects [3]: did not show growth inhibitory effects
